# Measurements reported in US10201588B2, “Materials and methods of treating dyslipidemia” (UNIVERSITY OF MIAMI, priority 2017, dated 2019).
# Marks after values point to notes of the source that are not given here.
# How the values were obtained:
# [1] = tested on: T1D rats; assay: Plasma metabolites, lipids, glucose regulatory hormones and chemokines in T1D rats; assay type: in vivo, rat
# Description: T1 Diabetes Animal Model. Wistar rats (male, 200-250 g, Envigo RMS, Inc.) were rendered diabetic with a single dose of streptozotocin (STZ, 50 mg/kg body weight, i.p.). Once rats became hyperglycemic (>350 mg/dl plasma glucose, usually 3-4 days post STZ injection), they were divided into two groups, with and without treatment with the GHRH antagonist MIA-602 ([…], s.c.) administered three times a week for 14 weeks after establishment of diabetes. Untreated animals received vehicle alone with the same regimen. Upon completion of the 14 weeks period, animals were placed in metabolic cages for 3 days for adaptation, allowing them free movement, water and food intake. During the entire experiment, rats were fed regular rat chow (Teklad Diet, Madison, Wis.) and received water ad libitum. On the third day in the metabolic cages, food and water intake was monitored for a period of 24 hours. 24-hour urine specimens were also collected, centrifuged at 400×g for 5 minutes for particulate removal, aliquoted and stored at −80° C. Animals were then euthanized in the morning around 10 am in a fed state, under deep anesthesia with isoflurane, by exsanguination, followed by removal of vital organs. Plasma was separated from heparinized blood samples, aliquoted and saved at −80° C. for further analysis. Rats were handled according to high ethical and scientific standards for laboratory animals, and our protocol was reviewed and approved by the Institutional Animal Care and Use Committee at the Medical College of Georgia at Augusta University.
# (§1) Determination of metabolites. ApoB-48 lipoprotein was measured in plasma samples from rats and in culture medium supernatant from IEC by the use of a commercial ELISA kit (MyBioSource). The VLDL/LDL Cholesterol Assay kit (Abcam), the Total Cholesterol Assay kit (Wako) and the PicoProbe Triglyceride Quantification Assay Kit (Abcam) were used for analysis of VLDL/LDL fractions, total cholesterol and triglycerides in plasma samples. Albumin and creatinine levels in urine were analyzed by the use of Nephrat II and Creatinine Companion (Exocell) assay kits, respectively. Chemokines and glucose regulatory hormones (MCP-1, insulin, amylin, GIP and glucagon) were analyzed using the MILLIPLEX MAP Rat Metabolic Hormone Magnetic Bead Panel—Metabolism Multiplex Assay (RMHMAG-84K, EMD Millipore). Levels of growth hormone (GH) were assay with Rat Growth Hormone ELISA kit (EMD Millipore). Glucose levels were measured in blood by AlphaTRAK Blood Glucose Monitoring System.
# [2] = tested on: GHRH receptor; assay: Western blot of GHRH receptor expression in jejunum-ileum of T1D rats; assay type: in vivo, rat; details: diabetic rats, MIA-602 25 μg/kg s.c. three times a week for fourteen weeks, vs vehicle diabetic
# Description: (§2) T1 Diabetes Animal Model. Wistar rats (male, 200-250 g, Envigo RMS, Inc.) were rendered diabetic with a single dose of streptozotocin (STZ, 50 mg/kg body weight, i.p.). Once rats became hyperglycemic (>350 mg/dl plasma glucose, usually 3-4 days post STZ injection), they were divided into two groups, with and without treatment with the GHRH antagonist MIA-602 ([…], s.c.) administered three times a week for 14 weeks after establishment of diabetes. Untreated animals received vehicle alone with the same regimen. Upon completion of the 14 weeks period, animals were placed in metabolic cages for 3 days for adaptation, allowing them free movement, water and food intake. […] On the third day in the metabolic cages, food and water intake was monitored for a period of 24 hours. […]
# (§3) The entire small intestine was removed and its length was measured from the pylorus to the ileocecal junction. […] Proteins were detected with the following antibodies: GHRH receptor (Abcam), GLP-1 receptor (Santa Cruz Inc), α-sma (Sigma-Aldrich), or β-actin (Sigma-Aldrich). Data obtained from Western blots were processed by ImageJ quantification software.
# T1D was induced in Wistar rats (male, 320-350 g) with intraperitoneal injection of a single dose of STZ (50 mg/kg body weight). […] The entire small intestine was removed from rats, and its length was measured from the pylorus to the ileocecal junction. […]
# [3] = tested on: GLP-1 receptor; assay: Western blot of GLP-1 receptor expression in T1D rats; assay type: in vivo, rat; details: MIA-602 treatment vs augmented expression in T1D, FIG. 3A
# Description: (§4) T1 Diabetes Animal Model. Wistar rats (male, 200-250 g, Envigo RMS, Inc.) were rendered diabetic with a single dose of streptozotocin (STZ, 50 mg/kg body weight, i.p.). Once rats became hyperglycemic (>350 mg/dl plasma glucose, usually 3-4 days post STZ injection), they were divided into two groups, with and without treatment with the GHRH antagonist MIA-602 ([…], s.c.) administered three times a week for 14 weeks after establishment of diabetes. Untreated animals received vehicle alone with the same regimen. Upon completion of the 14 weeks period, animals were placed in metabolic cages for 3 days for adaptation, allowing them free movement, water and food intake. During the entire experiment, rats were fed regular rat chow (Teklad Diet, Madison, Wis.) and received water ad libitum. On the third day in the metabolic cages, food and water intake was monitored for a period of 24 hours. 24-hour urine specimens were also collected, centrifuged at 400×g for 5 minutes for particulate removal, aliquoted and stored at −80° C. […]
# as §3
# [4] = tested on: Rat small intestinal epithelial cells (IEC-6); assay: ApoB-48 lipoprotein secretion by cultured intestinal epithelial cells challenged with oleic acid; assay type: cell-based
# Description: Cell culture. Rat small intestinal epithelial cells (IEC-6, ATCC® CRL-1592™) were grown in 6-well plates in DMEM medium supplemented with 10% fetal bovine serum (heat inactivated FBS, Gibco/Invitrogen), 1 mM sodium pyruvate, 2 mM L-alanyl-L-glutamine (GLUTAMAX I), 5 μg/ml insulin (Sigma-Aldrich), 100 U/ml penicillin and 100 μg/ml streptomycin at 37° C. in a 5% CO2 atmosphere. For all experiments, cells up to passage 6 were used for all experiments.
# Peptide Analogs Preparation. GHRH agonist JI-34, and GHRH antagonist MIA-602 were synthesized in the laboratory of A.V.S. (23, 24) and dissolved initially in DMSO before dilution with incubation medium. The final concentration of DMSO in the medium never exceeded 0.1% v/v.
# Assessment of ApoB-48 lipoprotein secretion by cultured intestinal epithelial cells. Upon confluence, cells were washed twice with serum-free DMEM medium, upon which fresh serum-free medium, supplemented with or without 5 μg/ml insulin was added. After 2 hrs of equilibration, cells were pre-treated for 1 hour with the GHRH receptor agonist JI-34 (1 μM, dissolved in DMSO), while control cells received vehicle alone, followed by addition of the GLP-1 receptor agonist (Exendin-4, 10 nM, Sigma-Aldrich). After 3 hrs, cells were treated with 0.5 mM oleic acid (OA) complexed to BSA (Sigma-Aldrich) for 3 hrs, to allow for lipid loading into ApoB-48 lipoproteins. Additional cells were pre-incubated or not for 1 h with the GLP-1 receptor antagonist Exendin 9-39 (100 nM, Sigma-Aldrich), or the GHRH antagonist MIA-602 (1 μM, dissolved in DMSO). Upon completion of treatment, medium was collected, centrifuged at 1,000×g for 3 minutes, and saved at −80° C. for further analysis.
# as §1
# [5] = tested on: T1D rats; assay: Kidney damage in T1D rats: proteinuria (albumin/creatinine ratio) and α-sma expression in kidney cortex; assay type: in vivo, rat; details: MIA-602 treatment vs vehicle-treated T1D
# Description: as §2
# Determination of metabolites. ApoB-48 lipoprotein was measured in plasma samples from rats and in culture medium supernatant from IEC by the use of a commercial ELISA kit (MyBioSource). The VLDL/LDL Cholesterol Assay kit (Abcam), the Total Cholesterol Assay kit (Wako) and the PicoProbe Triglyceride Quantification Assay Kit (Abcam) were used for analysis of VLDL/LDL fractions, total cholesterol and triglycerides in plasma samples. Albumin and creatinine levels in urine were analyzed by the use of Nephrat II and Creatinine Companion (Exocell) assay kits, respectively. […]
# [6] = tested on: thoracic aortas of T1D rats; assay: Vasodilation of thoracic aortic rings from T1D rats (acetylcholine, sodium nitroprusside); assay type: in vivo, rat; details: three groups of animals compared, FIG. 5E
# Description: FIG. 5A is a graph showing the measurement of proteinuria in urine from control, T1D and MIA-602/T1D rats, expressed as the albumin/creatinine ratio (n=5 per group). FIG. 5B: Upper panel: representative immunoblot of α-smooth muscle actin (α-sma) expression (a marker of fibroblast activation and renal fibrosis) in homogenates of kidney cortex.
# Therefore, MCP-1 levels in the serum were analyzed. […] Both dyslipidemia and increased MCP-1 plasma levels represent risk factors for vascular endothelial dysfunction. […] Responses to the endothelial-independent vasodilator sodium nitroprusside (SNP) were similar amongst the three groups of animals (FIG. 5E).
# [7] = tested on: Dipeptidyl-Peptidase 4 (DPP4); assay: Plasma DPP4 activity in T1D rats (ELISA kit); assay type: in vivo, rat; details: non-fasting state, MIA-602 treatment, FIG. 6
# Description: Treatment with MIA-602 blunted this effect. DPP4 activity values were measured in plasma obtained from rats in the non-fasting state, by the use of a commercial ELISA kit (MyBioSource).
# as §4, with “C. Animals were then euthanized in the morning around 10 am in a fed state, under deep anesthesia with isoflurane, by exsanguination, followed by removal of vital organs.” for “C.”
# [8] = tested on: lung microvascular endothelial cells; details: reference (24); cited from earlier work
substance,measurement,setting,value
Phac-Ada-Ty^1-D-Arg^2-Asp^3-Ala^4-Ile^5-Phe(F)5^6-Thr^7-Ala^8-Har^9-Tyr(me)^10-His^11-Orn^12-Val^13-Leu^14-Abu^15-Glu^16-Leu^17-Ser^18-Ala^19-His^20-Orn^21-Leu^22-Leu^23-Glu^24-Asp^25-Ile^26-Nle^27-D-Arg^28-Har^29-NH2 [MIA-602],Plasma levels of apolipoprotein B-48 (ApoB-48),"[1]; T1D rats treated with MIA-602, FIG. 2D",blunted
same,Plasma levels of GIP,"[1]; T1D rats treated with MIA-602, not significant vs vehicle-treated diabetic (85.7±37.5)",46.7 ± 9.6 pg/mL
same,Lipemic plasma (visual),"[1]; T1D rats treated with MIA-602 vs vehicle, FIG. 2A",significant reduction
same,Total cholesterol levels in plasma,"[1]; T1D rats treated with MIA-602 vs vehicle-treated STZ diabetic animals, FIG. 2B",lower
same,VLDL/LDL-cholesterol in plasma,"[1]; T1D rats treated with MIA-602 vs vehicle-treated STZ diabetic animals, FIG. 2C",lower
same,Plasma glucagon,"[1]; T1D rats, MIA-602 25 μg/kg s.c. three times a week for 14 weeks, p < 0.02 vs Diabetes",55.9 ± 34.3^c pg/ml
same,Plasma GLP-1,"[1]; T1D rats, MIA-602 25 μg/kg s.c. three times a week for 14 weeks, p < 0.05 vs Diabetes",48.7 ± 25.2^e pg/ml
same,MCP-1 serum levels,"[1]; T1D rats, MIA-602 treatment, FIG. 5C",reduced
same,Plasma triglyceride levels,"[1]; T1D rats, MIA-602 treatment, p<0.01 vs. STZ (89.3±4.2), n=6 per group",82.3 ± 2.8 mg/dL
same,Plasma glucose,"[1]; T1D rats, non-fasting, MIA-602 25 μg/kg s.c. three times a week for 14 weeks, no insulin",603 ± 137.4^b mg/dl
same,Blunting of GHRH receptor expression in jejunum-ileum (Western blot densitometry),[2],approximately 5 fold
same,GLP-1 receptor expression in distal small intestine and liver,[3],unaffected
same,ApoB-48 released into medium,"[4]; oleic acid (0.5 mM)-treated IEC, no insulin, agent alone at 1 μM, no GLP-1 agonist, oleic acid alone 6.67±0.26",3.43 ± 0.15 µg/mL
same,ApoB-48 released into medium,"[4]; oleic acid-treated IEC, MIA-602 (1 μM) in the presence of JI-34 and exendin-4",4.47 ± 0.46 µg/mL
same,Proteinuria (albumin/creatinine ratio),[5]; FIG. 5A,reduced
same,α-sma expression in kidney cortex,"[5]; Western blot, FIG. 5B",reduced
same,Responses to the endothelial-independent vasodilator sodium nitroprusside (SNP),[6],similar
same,Plasma Dipeptidyl-Peptidase 4 (DPP4) activity,[7],reduced
same,Barrier function,[8],slightly decreased
exendin 9-39,ApoB-48 released into medium,"[4]; oleic acid-treated IEC, exendin 9-39 (100 nM) together with MIA-602 (1 μM), MIA-602 alone 3.43±0.15",7.56 ± 0.53 µg/mL
same,ApoB-48 released into medium,"[4]; oleic acid-treated IEC, pretreatment 100 nM, then exendin-4 (10 nM), exendin-4 alone 4.44±0.36",8.78 ± 0.34 µg/mL
exendin-4: GLP-1 receptor agonist (Sigma-Aldrich),ApoB-48 released into medium,"[4]; oleic acid (0.5 mM)-treated IEC, no insulin, agent alone at 10 nM, oleic acid alone 6.67±0.26, medium alone 3.48±0.98",4.44 ± 0.36 µg/mL
